What was measured:
[1] = target: T1, REV-ERBα LBD (human; residues 281-614 Δ324-422) (Homo sapiens, UniProt P20393, DEL324-422); assay: TR-FRET corepressor interaction assay (REV-ERBα LBD, FITC-SMRT peptide); type: biochemical; details: Table 2, read-out: REVERBα agonism (EC50 class, FRET assay)
T1 construct: 6×Histag-REV-ERBα LBD (human; residues 281-614 Δ324-422); made in house; host or cells: Escherichia coli
How it was run: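 Compound serial dilutions (in DMSO, triplicate) incubated 2 h at 4 °C; Tb donor excited at 340 nm, emission read at 495 nm and FITC acceptor at 520 nm. TR-FRET ratio (520/495 nm) plotted against ligand concentration and fitted to a sigmoidal dose-response curve.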

[2] = target: T2, REV-ERBβ (Homo sapiens, UniProt Q14995); assay: TR-FRET corepressor interaction assay (REV-ERBβ, FITC-SMRT peptide); type: biochemical; details: Table 2, read-out: REVERBβ agonism (EC50 class, FRET assay)
T2 construct: 6×Histag-REV-ERBα LBD (human; residues 381-579); made in house; host or cells: Escherichia coli
T2 sequence (Q14995 381-579): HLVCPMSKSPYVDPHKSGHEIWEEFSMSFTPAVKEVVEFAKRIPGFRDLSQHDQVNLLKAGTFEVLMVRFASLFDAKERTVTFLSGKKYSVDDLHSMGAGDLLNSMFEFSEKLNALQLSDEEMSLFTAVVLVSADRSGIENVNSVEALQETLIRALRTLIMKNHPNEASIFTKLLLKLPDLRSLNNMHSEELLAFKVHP
Protocol: TR-FRET corepressor interaction assay. The time-resolved fluorescence resonance energy transfer (TR-FRET) assay was performed in black low-volume 384-well plates (Greiner). […] Ligand stocks were prepared via serial dilution in DMSO, added to wells in triplicate, and plates were incubated at 4° C. for 2 h and read using a BioTek Synergy Neo multimode plate reader. The Tb donor was excited at 340 nm; its fluorescence emission was monitored at 495 nm, and the acceptor FITC emission was measured at 520 nm; and the TR-FRET ratio was calculated as the signal at 520 nm divided by the signal at 495 nm. Data were plotted using GraphPad Prism as TR-FRET ratio vs. ligand concentration and fit to sigmoidal dose response curve equation.
Exemplary compounds of the present disclosure were assayed as described above to assess agonism of REV-ERBα and REV-ERBβ.

T1 sequence (P20393 with tags, fused parts or gaps DEL324-422): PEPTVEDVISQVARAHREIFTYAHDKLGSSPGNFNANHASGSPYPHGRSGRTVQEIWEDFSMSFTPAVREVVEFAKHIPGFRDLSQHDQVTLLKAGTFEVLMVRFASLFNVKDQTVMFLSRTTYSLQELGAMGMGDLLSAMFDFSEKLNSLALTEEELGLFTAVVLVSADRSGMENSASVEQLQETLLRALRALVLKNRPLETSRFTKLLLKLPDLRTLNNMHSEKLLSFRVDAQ
T1 sequence (Q9Y618 2335-2356 partner limits assumed): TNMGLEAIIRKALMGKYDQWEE

| EC50 [1] [µM] | EC50 [2] [µM] | Structure (SMILES) |
| --- | --- | --- |
| < 0.5 | > 3 | CN(C)S(=O)(=O)N[C@@H](c1cn(CC(C)(C)C)c2cc(C3CC3)c(F)cc12)C(F)(F)F [Example 328, {[(1S)-1-[6-cyclopropyl-1-(2,2-dimethylpropyl)-5-fluoro-1H-indol-3-yl]-2,2,2-trifluoroethyl]sulfamoyl}dimethylamine] |
| < 0.5 | 0.5 to 3 | CC(C)(C)Cc1cn(CCNS(=O)(=O)C2CC2)c2ccc(-c3c(Cl)cccc3Cl)cc12 [Example 214, N-(2-(5-(2,6-dichlorophenyl)-3-neopentyl-1H-indol-1-yl)ethyl)cyclopropane-sulfonamide] |
| < 0.5 | 0.5 to 3 | CC(C)(C)Cn1cc([C@H](NS(=O)(=O)C2CC2)C(F)(F)F)c2ccc(-c3ccccc3C(F)(F)F)cc21 [Example 322, (S)—N-(2,2,2-trifluoro-1-(1-neopentyl-6-(2-(trifluoromethyl)phenyl)-1H-indol-3-yl)ethyl)cyclopropanesulfonamide] |
| < 0.5 | 0.5 to 3 | Cc1c(-c2ccncc2)ccc2c(CCNS(=O)(=O)N(C)C)cn(C(=O)C(C)C)c12 [Example 199, 1-(3-{2-[(dimethylsulfamoyl)amino]ethyl}-7-methyl-6-(pyridin-4-yl)-1H-indol-1-yl)-2-methylpropan-1-one] |
| < 0.5 | 0.5 to 3 | CC(C)(C)Cc1cn(CCNS(=O)(=O)C2CC2)c2ccc(-c3ccc(C(F)(F)F)cc3C(F)(F)F)cc12 [Example 299, N-(2-(5-(2,4-bis(trifluoromethyl)phenyl)-3-neopentyl-1H-indol-1-yl)ethyl)cyclo-propanesulfonamide] |
| < 0.5 | 0.5 to 3 | CC(C)Cn1cc(CCNS(=O)(=O)N(C)C)c2ccc(C3CCCCC3)cc21 [Compound 16] |
| > 3 | > 3 | CC(C)Cn1cc(CCNS(=O)(=O)N(C)C)c2ccc(-c3cccc4cnccc34)cc21 [Compound 38, ({2-[6-(isoquinolin-5-yl)-1-(2-methylpropyl)-1H-indol-3-yl]ethyl}sulfamoyl)dimethylamine] |
| < 0.5 | > 3 | CC(C)(C)Cn1cc(CNS(=O)(=O)C2CC2)c2cc(F)c(-c3ccncc3Cl)cc21 [Compound 279] |
| < 0.5 | 0.5 to 3 | CC(C)(C)Cn1cc([C@H](NS(=O)(=O)C2CC2)C(F)(F)F)c2cc(F)c(-c3ccccc3Cl)cc21 [Example 331, (S)—N-(1-(6-(2-chlorophenyl)-5-fluoro-1-neopentyl-1H-indol-3-yl)-2,2,2-trifluoroethyl)cyclopropanesulfonamide] |
| < 0.5 | > 3 | CN(C)S(=O)(=O)N[C@@H](c1cn(CC(C)(C)C)c2cc(-c3ccccc3C(F)(F)F)ccc12)C(F)(F)F [Example 323, {[(1S)-1-[1-(2,2-dimethylpropyl)-6-[2-(trifluoromethyl)phenyl]-1H-indol-3-yl]-2,2,2-trifluoroethyl]sulfamoyl}dimethylamine] |
| < 0.5 | > 3 | CC(C)Cn1cc([C@H](NS(=O)(=O)C2CC2)C(F)(F)F)c2ccc(C(C)C)cc21 [Example 333, (S)—N-(2,2,2-trifluoro-1-(1-isobutyl-6-isopropyl-1H-indol-3-yl)ethyl)cyclopropanesulfonamide] |
| 0.5 to 3 | > 3 | CC(C)Cn1cc(CCNS(=O)(=O)N(C)C)c2cccc(Br)c21 [Example 137, ({2-[7-bromo-1-(2-methylpropyl)-1H-indol-3-yl]ethyl}sulfamoyl)dimethylamine] |
| < 0.5 | < 0.5 | Cc1ccc2c([C@H](NS(=O)(=O)C3CC3)C(F)(F)F)cn(CC(C)C)c2c1 [Example 309, (S)—N-(2,2,2-trifluoro-1-(1-isobutyl-6-methyl-1H-indol-3-yl)ethyl)cyclopropanesulfonamide] |
| < 0.5 | > 3 | CC(C)Cn1cc(CCNS(=O)(=O)C(C)C)c2cc(F)c(-c3ccccc3Cl)cc21 [Compound 262] |
| < 0.5 | > 3 | CC(C)Cn1cc([C@H](NS(=O)(=O)N(C)C)C(F)(F)F)c2cc(F)c(C3CC3)cc21 [Example 329, {[(1S)-1-[6-cyclopropyl-5-fluoro-1-(2-methylpropyl)-1H-indol-3-yl]-2,2,2-trifluoroethyl]sulfamoyl}dimethylamine] |
| < 0.5 | > 3 | CCc1ccc2c(CCNS(=O)(=O)N(C)C)cn(CC(C)C)c2c1 [Compound 100, ({2-[6-ethyl-1-(2-methylpropyl)-1H-indol-3-yl]ethyl}sulfamoyl)dimethylamine] |
| > 3 | > 3 | CC(C)Cn1cc(CCNS(=O)(=O)N(C)C)c2ccc(-c3cnn(C)c3)cc21 [Compound 33, dimethyl({2-[6-(1-methyl-1H-pyrazol-4-yl)-1-(2-methylpropyl)-1H-indol-3-yl]ethyl}sulfamoyl)amine] |

| EC50 [1] [µM] | EC50 [2] [µM] | Structure (SMILES) |
| --- | --- | --- |
| 0.5 to 3 | > 3 | CC(C)Cn1cc(CCNS(=O)(=O)N(C)C)c2ccc(-c3ccccn3)cc21 [Compound 31, dimethyl({2-[1-(2-methylpropyl)-6-(pyridin-2-yl)-1H-indol-3-yl]ethyl}sulfamoyl)amine] |
| – | > 3 | COc1ccccc1-c1ccc2c(CCNS(=O)(=O)N(C)C)cn(CC(C)C)c2c1 [Example 58, N-{2-[6-(2-methoxylphenyl)-1-(2-methylpropyl)-1H-indol-3-yl]ethyl}-N,N-dimethylsulfuric diamide] |
| < 0.5 | > 3 | CC(C)Cn1cc(CCNS(=O)(=O)C2CCCC2)c2ccc(-c3ccncc3)cc21 [Compound 11] |
| 0.5 to 3 | > 3 | CC(C)Cn1cc(CCNS(=O)(=O)N(C)C)c2ccc(-c3ccnc(C(F)(F)F)c3)cc21 [Compound 17] |
| < 0.5 | 0.5 to 3 | CC(C)CCn1cc(CCNS(=O)(=O)N(C)C)c2ccc(-c3ccncc3)cc21 [Compound 231] |
| > 3 | > 3 | CC(C)Cn1cc(CCNS(=O)(=O)N(C)C)c2ccc(-c3ccnc(N4CCOCC4)c3)cc21 [Compound 36, dimethyl({2-[1-(2-methylpropyl)-6-[2-(morpholin-4-yl)pyridin-4-yl]-1H-indol-3-yl]ethyl}sulfamoyl)amine] |
| < 0.5 | > 3 | CC(C)Cn1cc(CCNS(=O)(=O)N(C)C)c2ccc(-c3c(Cl)cccc3Cl)cc21 [Example 80, N-{2-[6-(2,6-dichlorophenyl)-1-(2-methylpropyl)-1H-indol-3-yl]ethyl}-N,N-dimethyl-sulfuric diamide] |
| – | > 3 | CC(C)Cn1cc(CCNS(=O)(=O)N(C)C)c2ccc(-c3ccccc3Cl)cc21 [Example 78, N-{2-[6-(2-chlorophenyl)-1-(2-methylpropyl)-1H-indol-3-yl]ethyl}-N,N-dimethylsulfuric diamide] |
| < 0.5 | > 3 | CCCc1ccc2c(CCNS(=O)(=O)N(C)C)cn(CC(C)C)c2c1 [Compound 98, dimethyl({2-[1-(2-methylpropyl)-6-propyl-1H-indol-3-yl]ethyl}sulfamoyl)amine] |
| < 0.5 | > 3 | Cc1c(-c2ccncc2)ccc2c(CCNS(=O)(=O)N(C)C)cn(CC(C)C)c12 [Example 200, dimethyl({2-[7-methyl-1-(2-methylpropyl)-6-(pyridin-4-yl)-1H-indol-3-yl]ethyl}sulfamoyl)amine] |
| < 0.5 | 0.5 to 3 | CC(C)(C)Cc1cn(CCNS(=O)(=O)C2CC2)c2ccc(-c3ccc(C(F)(F)F)cc3Cl)cc12 [Example 300, N-(2-(5-(2-chloro-4-(trifluoromethyl)phenyl)-3-neopentyl-1H-indol-1-yl)ethyl) cyclopropanesulfonamide] |
| < 0.5 | > 3 | CC(C)Cn1cc(CCNS(=O)(=O)C2CC2)c2ccc(-c3ccncc3)cc21 [Compound 13] |
| – | 0.5 to 3 | CC(C)Cn1cc(CCNS(=O)(=O)N(C)C)c2ccc(-c3ccccc3)cc21 [Compound 30, dimethyl({2-[1-(2-methylpropyl)-6-phenyl-1H-indol-3-yl]ethyl}sulfamoyl)amine] |
| – | > 3 | CC(C)Cn1cc(CCNS(=O)(=O)N(C)C)c2ccc(C3CC3)cc21 [Example 82, N-{2-[6-cyclopropyl-1-(2-methylpropyl)-1H-indol-3-yl]ethyl}-N,N-dimethylsulfuric diamide] |
| – | 0.5 to 3 | CC(C)Cc1cn(CCNS(=O)(=O)N(C)C)c2ccc(-c3ccncc3)cc12 [Example 23, dimethyl({2-[3-(2-methylpropyl)-5-(pyridin-4-yl)-1H-indol-1-yl]ethyl}sulfamoyl)amine] |
| – | 0.5 to 3 | CC(C)Cn1cc(CCNS(=O)(=O)N(C)C)c2ccc(-c3ccncc3)cc21 [Compound 27, dimethyl({2-[1-(2-methylpropyl)-6-(pyridin-4-yl)-1H-indol-3-yl]ethyl}sulfamoyl)amine] |

— patent US20230339886A1 (University of Florida Research Foundation, Incorporated, priority 2020, published 2023)
